ChEMBL document CHEMBL1201862, “PubChem BioAssay data set” (2004)
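Protocol summary: plate cells (96-well), add compound at 5 concentrations, incubate 48 h, interpolate endpoints linearly. GI50 marks 50% less growth.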 Activity calls are given as the source filed them. No stated cut-off is given here; in the data, active = GI50 up to about 1.1 µM and inactive = higher. *1 amine or outer side, *2 acyl side, *3 side chain or, on linkers, in order; H or OH if unused. Where a SMILES comes first, the peptide text is derived from it. Bridges are numbered along the chain shown (N, C = ends). [ ]: non-standard residue; d: D form. The star is where a group is joined. X36 = O=C(C(CCCCNO[*:3])N[*:1])[*:2]; Fmoc = O=C(OCC1c2ccccc2-c2ccccc21)*

Key:
Assay in all cases: NCI tumour cell line growth inhibition, 48 h
[1] = system: PC-3
[2] = system: IGROV-1
[3] = system: K562
[4] = system: OVCAR-8
[5] = system: SK-OV-3
[6] = system: NCI-H23
[7] = system: UACC-62
[8] = system: MCF7
[9] = system: LOX IMVI
[10] = system: OVCAR-5
[11] = system: SN12C
[12] = system: NCI-H226
[13] = system: SW-620
[14] = system: SF-295
[15] = system: SK-MEL-28
[16] = system: 786-0
[17] = system: RXF 393
[18] = system: RPMI-8226
[19] = system: Malme-3M
[20] = system: A498

| Structure (SMILES) | GI50 [1] | GI50 [2] | GI50 [3] | GI50 [4] | GI50 [5] | GI50 [6] | GI50 [7] | GI50 [8] | GI50 [9] | GI50 [10] | GI50 [11] | GI50 [12] | GI50 [13] | GI50 [14] | GI50 [15] | GI50 [16] | GI50 [17] | GI50 [18] | GI50 [19] | GI50 [20] |
| --- | --- | --- | --- | --- | --- | --- | --- | --- | --- | --- | --- | --- | --- | --- | --- | --- | --- | --- | --- | --- |
| COC(=O)C1Cc2c([nH]c3ccccc23)-c2[nH]c3ccccc3c2CC(NC(C)=O)C(=O)NCC(=O)N1 (stereo not given) | > 100 µM (inactive) | 0.914 µM (active) | > 100 µM (inactive) | > 100 µM (inactive) | > 100 µM (inactive) | > 100 µM (inactive) | > 100 µM (inactive) | > 100 µM (inactive) | > 100 µM (inactive) | > 100 µM (inactive) | > 100 µM (inactive) | > 100 µM (inactive) | > 100 µM (inactive) | > 100 µM (inactive) | > 100 µM (inactive) | > 100 µM (inactive) | > 100 µM (inactive) | > 100 µM (inactive) | – | – |
| O=C1CS(=O)(=O)C(c2cccc(Oc3ccccc3)c2)N1c1cccc(Cl)c1 (stereo not given) | 20.6 µM (inactive) | 19.1 µM (inactive) | 13.1 µM (inactive) | 22.1 µM (inactive) | 40.6 µM (inactive) | 33.5 µM (inactive) | 12.5 µM (inactive) | 14.8 µM (inactive) | 15.7 µM (inactive) | 55.1 µM (inactive) | 31.8 µM (inactive) | 27.7 µM (inactive) | 24.8 µM (inactive) | 33.4 µM (inactive) | 36.6 µM (inactive) | 19.8 µM (inactive) | 23.3 µM (inactive) | – | 20 µM (inactive) | – |
| CC(C)C1/C(=N/O)CC(c2ccccc2)N(N=O)C1c1ccccc1 (stereo not given) | 33.3 µM (inactive) | 68.2 µM (inactive) | 35.5 µM (inactive) | 57 µM (inactive) | 24.8 µM (inactive) | 47.1 µM (inactive) | 19.7 µM (inactive) | 32.4 µM (inactive) | 28.8 µM (inactive) | – | 53.7 µM (inactive) | 37.1 µM (inactive) | 40.6 µM (inactive) | 30.5 µM (inactive) | 50.1 µM (inactive) | 31.1 µM (inactive) | 20.9 µM (inactive) | 45.4 µM (inactive) | 23 µM (inactive) | – |
| CSC1=N/C(=C\c2ccccc2)C(=O)N1CN1CCOCC1 | 68.9 µM (inactive) | 52.7 µM (inactive) | 41.9 µM (inactive) | 41.1 µM (inactive) | > 100 µM (inactive) | > 100 µM (inactive) | 34 µM (inactive) | 28.3 µM (inactive) | 31.6 µM (inactive) | > 100 µM (inactive) | > 100 µM (inactive) | 41.6 µM (inactive) | 41.6 µM (inactive) | > 100 µM (inactive) | > 100 µM (inactive) | 41.1 µM (inactive) | – | 30.1 µM (inactive) | 57.3 µM (inactive) | > 100 µM (inactive) |
| NC(=O)CNC(=O)C1CCCN1C(=O)C1CCCCNOC(=O)CCC(NC(=O)OCC2c3ccccc3-c3ccccc32)C(=O)NC(Cc2c[nH]c3ccccc23)C(=O)N1 (stereo not given) (Fmoc-EW[X36]PG-NH2; ester 1-3; configuration not given here) | > 100 µM (inactive) | > 100 µM (inactive) | > 100 µM (inactive) | > 100 µM (inactive) | 63.4 µM (inactive) | > 100 µM (inactive) | > 100 µM (inactive) | 47.9 µM (inactive) | > 100 µM (inactive) | > 100 µM (inactive) | > 100 µM (inactive) | > 100 µM (inactive) | > 100 µM (inactive) | > 100 µM (inactive) | > 100 µM (inactive) | > 100 µM (inactive) | > 100 µM (inactive) | > 100 µM (inactive) | > 100 µM (inactive) | – |
| Cc1cc(O)c2c(c1)C(C1OC(CO)C(O)C(O)C1O)c1cc(O)cc(O)c1C2=O (stereo not given) | > 100 µM (inactive) | > 100 µM (inactive) | > 100 µM (inactive) | > 100 µM (inactive) | > 100 µM (inactive) | > 100 µM (inactive) | > 100 µM (inactive) | > 100 µM (inactive) | – | > 100 µM (inactive) | > 100 µM (inactive) | > 100 µM (inactive) | > 100 µM (inactive) | > 100 µM (inactive) | > 100 µM (inactive) | > 100 µM (inactive) | – | > 100 µM (inactive) | > 100 µM (inactive) | > 100 µM (inactive) |
| CCN1C(=O)C(=C/C=C/c2ccc([N+](=O)[O-])cc2)C(=O)N(CC)C1=S | 19.3 µM (inactive) | 15.1 µM (inactive) | 20.1 µM (inactive) | 20.9 µM (inactive) | > 100 µM (inactive) | 18.2 µM (inactive) | 18.9 µM (inactive) | 23.6 µM (inactive) | 18.3 µM (inactive) | > 100 µM (inactive) | 21.5 µM (inactive) | 25.4 µM (inactive) | 19.1 µM (inactive) | > 100 µM (inactive) | 18 µM (inactive) | 18.6 µM (inactive) | 17 µM (inactive) | 30.8 µM (inactive) | – | – |
| COc1cc(O)c2c(O)c3c(=O)oc(C)cc3c(OC)c2c1 [PAEPALANTINE] | 28.4 µM (inactive) | 27 µM (inactive) | 23 µM (inactive) | 27.2 µM (inactive) | 24.5 µM (inactive) | 23.6 µM (inactive) | 21.9 µM (inactive) | 32.6 µM (inactive) | – | 32 µM (inactive) | 24.1 µM (inactive) | – | 34.2 µM (inactive) | 27 µM (inactive) | 25 µM (inactive) | 31.1 µM (inactive) | 49.8 µM (inactive) | 20 µM (inactive) | 21.4 µM (inactive) | 61.7 µM (inactive) |
| C[C@]12CCC(=O)C=C1CC[C@@H]1[C@@H]2CC[C@]2(C)C(=O)/C(=C/c3ccncc3)C[C@@H]12 | 12.4 µM (inactive) | 21.2 µM (inactive) | 11.7 µM (inactive) | 23.3 µM (inactive) | 20 µM (inactive) | 18.3 µM (inactive) | 12.7 µM (inactive) | 11.5 µM (inactive) | 15.7 µM (inactive) | 16.9 µM (inactive) | 16.7 µM (inactive) | 16.9 µM (inactive) | 23.8 µM (inactive) | 15.3 µM (inactive) | 20 µM (inactive) | 15.1 µM (inactive) | 15.6 µM (inactive) | 8.99 µM (inactive) | 15.7 µM (inactive) | – |
| Cc1ccc(O)c(C(=O)/C=C/c2ccccc2)c1 | > 100 µM (inactive) | > 100 µM (inactive) | > 100 µM (inactive) | > 100 µM (inactive) | > 100 µM (inactive) | > 100 µM (inactive) | > 100 µM (inactive) | > 100 µM (inactive) | > 100 µM (inactive) | > 100 µM (inactive) | > 100 µM (inactive) | > 100 µM (inactive) | > 100 µM (inactive) | > 100 µM (inactive) | > 100 µM (inactive) | > 100 µM (inactive) | > 100 µM (inactive) | > 100 µM (inactive) | – | – |
| O=C(N/N=C(COc1ccccc1)\N=C\c1ccncc1)c1ccncc1 | > 100 µM (inactive) | > 100 µM (inactive) | > 100 µM (inactive) | > 100 µM (inactive) | > 100 µM (inactive) | > 100 µM (inactive) | > 100 µM (inactive) | > 100 µM (inactive) | > 100 µM (inactive) | > 100 µM (inactive) | > 100 µM (inactive) | – | > 100 µM (inactive) | > 100 µM (inactive) | > 100 µM (inactive) | > 100 µM (inactive) | > 100 µM (inactive) | 97.5 µM (inactive) | – | > 100 µM (inactive) |
| COc1cc(C=C2C(=O)NC(=S)NC2=O)cc(OC)c1OC | > 100 µM (inactive) | > 100 µM (inactive) | > 100 µM (inactive) | > 100 µM (inactive) | > 100 µM (inactive) | > 100 µM (inactive) | > 100 µM (inactive) | > 100 µM (inactive) | > 100 µM (inactive) | > 100 µM (inactive) | > 100 µM (inactive) | > 100 µM (inactive) | > 100 µM (inactive) | > 100 µM (inactive) | > 100 µM (inactive) | > 100 µM (inactive) | > 100 µM (inactive) | > 100 µM (inactive) | > 100 µM (inactive) | – |
| SC1=NC2(CCCCCC2)NN1c1ccccc1 | 29.6 µM (inactive) | > 39.4 µM (inactive) | 0.019 µM (active) | 15.5 µM (inactive) | > 100 µM (inactive) | 9.23 µM (inactive) | 0.0208 µM (active) | 1.36 µM (inactive) | 0.82 µM (active) | 1.91 µM (inactive) | > 27.3 µM (inactive) | > 100 µM (inactive) | 1.78 µM (inactive) | 0.0471 µM (active) | 1.11 µM (active) | > 30.6 µM (inactive) | – | 0.769 µM (active) | 16.4 µM (inactive) | 50.5 µM (inactive) |
| COC(=O)[C@]12CSC[C@H]1C[C@H](c1cccc3ccccc13)N2 | > 100 µM (inactive) | 43.1 µM (inactive) | 35.1 µM (inactive) | > 100 µM (inactive) | > 100 µM (inactive) | 91.2 µM (inactive) | > 100 µM (inactive) | 57.7 µM (inactive) | 94.6 µM (inactive) | > 100 µM (inactive) | > 100 µM (inactive) | 96.2 µM (inactive) | > 100 µM (inactive) | > 100 µM (inactive) | > 100 µM (inactive) | > 100 µM (inactive) | – | 61.8 µM (inactive) | – | > 100 µM (inactive) |
| N#Cc1sc2c(c1OC(=O)c1cccs1)c(=O)n(-c1ccccc1)c(=S)n2-c1ccccc1 | 18 µM (inactive) | 19.8 µM (inactive) | 22 µM (inactive) | 25.9 µM (inactive) | 29.6 µM (inactive) | 25.3 µM (inactive) | 17.2 µM (inactive) | 21.5 µM (inactive) | 20.3 µM (inactive) | – | 19.2 µM (inactive) | 19.5 µM (inactive) | 21.8 µM (inactive) | 21 µM (inactive) | 21.9 µM (inactive) | 31.4 µM (inactive) | 14.9 µM (inactive) | 18.7 µM (inactive) | 18.2 µM (inactive) | – |
